{"source": "patent US9404927B2", "about": "“Systems and methods for diagnosing and treating cancer” (The Translational Genomics Research Institute, priority 2013, dated 2016)", "key": {"[1]": {"test_system": "HGF-induced Fn14 expression in H2073 cells", "test": "Immunoblot of HGF-induced Fn14 expression in serum starved H2073 cells", "format": "cell-based, human", "conditions": "for HGF-induced Fn14 expression: inhibitor 10 μM pre-treated 30 minutes, then HGF (20 ng) three hours", "experimental": "FIGS. 5A and 5B illustrate that inhibition of MEK or ERK abrogates HGF-induced expression of Fn14. (FIG. 5A) Serum starved H2073 cells pre-treated with either vehicle, U0126, or LY294002 for 30 minutes were exposed to HGF (20 ng) for three hours. Cells were harvested, total cell lysates were prepared and immunoblotted with antibodies to Fn14. Tubulin was used as a loading control. (FIG. 5B) H1993 cells were treated with either vehicle or U0126 for three hours Immunoblots for phosphorylated ERK1/2 (pERK1/2) and Fn14 were performed with tubulin used as a loading control.\nHuman NSCLC cell lines H2073 and H1993 (American Type Culture Collection, Manassas, Va.) and mouse cell lines CMT64 and CMT167 (Sigma-Aldrich, St. Louis, Mo.) were maintained in RPMI 1640 (Invitrogen, Carlsbad, Calif.) and DMEM (Invitrogen), respectively, supplemented with 10% heat-inactivated fetal bovine serum (FBS) in a 37° C., 5% CO2 atmosphere. For the HGF stimulation, cells were placed in RPMI 1640 without FBS for 18 hours prior to growth factor exposure.\nHGF was purchased from Millipore (Billerica, Mass.). SU11274 and U0126 were purchased from Selleck Chemicals (Houston, Tex.). LY294002 was purchased from Tocris Biosciences (R&D Systems, Minneapolis, Minn.). The final concentrations of inhibitors were SU11274 (2 μM), U0126 (10 μM), and LY294002 (10 μM). Antibodies for immunblot analysis against Fn14, c-Met, and phosphorylated c-Met were purchased from Cell Signaling Technology (Danvers, Mass.), while alpha-tubulin was purchased from Millipore. Immunoblot analysis was performed as previously described (Whitsett T G, et al. (2012) Elevated expression of Fn14 in non-small cell lung cancer correlates with activated EGFR and promotes tumor cell migration and invasion. Am J Pathol 181 1): 111-20)."}, "[2]": {"test_system": "Fn14 protein expression in H1993 cells", "test": "Immunoblot of Fn14 in H1993 cells treated with inhibitors", "format": "cell-based, human", "conditions": "immunoblot vs vehicle", "experimental": "FIGS. 4A-4C illustrate that c-Met amplification enhances Fn14 expression levels in NSCLC cell lines. (FIG. 4A) Total cell lysates were prepared from CMT64 and CMT167 cell lines and immunoblotted with the indicated antibodies. Tubulin was used as a loading control. (FIG. 4B) Total cell lysates were prepared from H2073 (primary adenocarcinoma NSCLC cell line) and H1993 (patient-matched metastatic cell line with known c-Met amplification) and immunoblotted with the indicated antibodies. Tubulin was used as a loading control. (FIG. 4C) H1993 cells were treated with vehicle or SU11274 for 24 hr. Cells were harvested, total cell lysates were prepared and immunoblotted with an antibody against Fn14. Tubulin was used as a loading control. FIGS. 5A and 5B illustrate that inhibition of MEK or ERK abrogates HGF-induced expression of Fn14. […] Cells were harvested, total cell lysates were prepared and immunoblotted with antibodies to Fn14. Tubulin was used as a loading control. […] Human NSCLC cell lines H2073 and H1993 (American Type Culture Collection, Manassas, Va.) and mouse cell lines CMT64 and CMT167 (Sigma-Aldrich, St. Louis, Mo.) were maintained in RPMI 1640 (Invitrogen, Carlsbad, Calif.) and DMEM (Invitrogen), respectively, supplemented with 10% heat-inactivated fetal bovine serum (FBS) in a 37° C., 5% CO2 atmosphere. […]"}}}
{"compound": "O=c1cc(N2CCOCC2)oc2c(-c3ccccc3)cccc12", "note": "[LY294002]", "values": [{"measurement": "HGF-induced Fn14 expression", "setting": "[1]", "result": "no effect"}]}
{"compound": "Cc1[nH]c(/C=C2\\C(=O)Nc3ccc(S(=O)(=O)N(C)c4cccc(Cl)c4)cc32)c(C)c1C(=O)N1CCN(C)CC1", "note": "[SU11274]", "values": [{"measurement": "Fn14 protein expression", "setting": "[2]; SU11274 2 μM, 24 hr", "result": "inhibition of the Fn14 protein expression"}]}
{"compound": "N#CC(=C(/N)Sc1ccccc1N)/C(C#N)=C(\\N)Sc1ccccc1N", "note": "[U0126]", "values": [{"measurement": "Fn14 protein expression", "setting": "[2]; U0126 10 μM, three hours", "result": "significantly decreased"}, {"measurement": "HGF-induced Fn14 expression", "setting": "[1]", "result": "completely abrogated"}]}
{"compound": "HGF: hepatocyte growth factor, cognate ligand of c-Met, purchased from Millipore", "values": [{"measurement": "protein expression of Fn14 on exposure to HGF", "setting": "[1]; HGF (20 ng), three hours", "result": "enhanced"}]}
